Here are results for three molecules from patent US9795135B2, “Binary fungicidal composition” (BAYER CORPSCIENCE AKTIENGESELLSCHAFT, priority 2013, dated 2017).

For one assay, the system named is Alternaria solani. Briefly: Alternaria test (tomatoes) / preventive. The following applies: 80 ppm a.i.; tomatoes sprayed 24 h before inoculation; evaluated 3 days after inoculation. The format is in vivo. As for the experimental part: Alternaria Test (Tomatoes)/Preventive
(§1) Biological control agents and diverse chemical active compounds were tested solo and in a mixture of both. The biological control agents SERENADE® DPZ (comprising the biological control agent B1.1.18, Bacillus subtilis, strain AQ30002, Accession No. NRRL B-50421), SERENADE® ASO (comprising the biological control agent B1.1.1, Bacillus subtilis, strain QST713/AQ713, Accession No. NRRL B-21661) and SONATA® (comprising the biological control agent B1.1.6, Bacillus pumilus, strain QST2808, Accession No. NRRL B-30087) were diluted with water to the desired application rate of 100 ppm a.i. to 500 ppm a.i., referring to the amount of 1.34% Bacillus subtilis or 1.38% Bacillus pumilis product.
The chemical compounds were solved in acetone+dimethylacetamide in a ratio of 1/1+2% PS 16 (Alkylarylpolyglykolether) and diluted with water or the prepared bacteria suspension. Chemical compounds were tested in the concentration of 80 ppm a.i.
In order to test the activity, young plants of tomatoes (21 d after sowing) were sprayed with the preparation of active compound at the stated rate of application. 24 h after application, the plants were inoculated with an aqueous spore suspension (7.500 spores/ml) of Alternaria solani. The wetted plants were then placed in an incubation cabinet at approximately 20° C. and a relative atmospheric humidity of 100% and darkness.
The test was evaluated 3 days after the inoculation. Assessment: % infested leaf. 0% efficacy corresponds to the level of disease in the untreated control while an efficacy of 100% means that no disease is observed.

In a further assay the test system is Sphaerotheca fuliginea. Kind of assay: Sphaerotheca test (cucumbers) / preventive. To be noted: 80 ppm a.i.; cucumber sprayed 24 h before inoculation; evaluated 7 d after inoculation. The format is in vivo. On the procedure:
Sphaerotheca Test (Cucumbers)/Preventive
as §1, with “B-50421), SERENADE” for “B-50421), SERENADE®”
The chemical compounds were solved in acetone+dimethylacetamide in the ratio 1/1+2% PS 16 (Alkylarylpolyglykolether) and diluted with water or the prepared bacteria suspension. Chemical compounds were tested in the concentration of 80 ppm a.i.
In order to test the activity, young plants (kotyledones are fully developed) of cucumber c.v. “Delikatess” were sprayed with the undermentioned preparation of compounds at the stated time of application. 24 h after application, the plants were inoculated with an aqueous spore suspension of Sphaerotheca fuliginea. Infested plants were stored in greenhouse at 22° C. and 70% relative humidity.
The test was evaluated 7 d after inoculation. Assessment: % infested leaf. 0% efficacy corresponds to the level of disease in the untreated control while an efficacy of 100% means that no disease is observed.

With `CC1(C)N=C(c2cnc3ccccc3c2)c2cccc(F)c2C1(F)F` [(I-3)], the “Efficacy in % Found*” value with Alternaria solani is 37%; in the assay with Sphaerotheca fuliginea, 32%.

Turning to `CC1(C)N=C(c2cnc3ccccc3c2)c2cccc(F)c2C1(C)C` [(I-1)], the “Efficacy in % Found*” value in the assay on Alternaria solani amounted to 37%; with Sphaerotheca fuliginea it was 49%.

Regarding `CC1(C)N=C(c2cnc3ccccc3c2)c2ccccc2C1(F)F` [(I-2)], the “Efficacy in % Found*” value is reported as 13% in the assay on Alternaria solani and 35% in the assay with Sphaerotheca fuliginea.
